Reference: US5051403A (priority 1989, dated 1991)
“And” between values parts separate entries of the source, which are not always exact repeats. Equal values may be shown once. Bridge positions count the residues as written; N and C are the ends. Square brackets hold non-standard residues; d marks the D form. Peptide text beside a SMILES is read from it. Hyp = O=C(O)[C@@H]1C[C@@H](O)CN1

What was measured:
[1] = biological target: OCT receptor sites, PC-12 rat pheochromocytoma cells (Rattus norvegicus, UniProt Q02294); type: binding
Chain of OCT receptor sites, PC-12 rat pheochromocytoma cells (Q02294 whole entry, looked up): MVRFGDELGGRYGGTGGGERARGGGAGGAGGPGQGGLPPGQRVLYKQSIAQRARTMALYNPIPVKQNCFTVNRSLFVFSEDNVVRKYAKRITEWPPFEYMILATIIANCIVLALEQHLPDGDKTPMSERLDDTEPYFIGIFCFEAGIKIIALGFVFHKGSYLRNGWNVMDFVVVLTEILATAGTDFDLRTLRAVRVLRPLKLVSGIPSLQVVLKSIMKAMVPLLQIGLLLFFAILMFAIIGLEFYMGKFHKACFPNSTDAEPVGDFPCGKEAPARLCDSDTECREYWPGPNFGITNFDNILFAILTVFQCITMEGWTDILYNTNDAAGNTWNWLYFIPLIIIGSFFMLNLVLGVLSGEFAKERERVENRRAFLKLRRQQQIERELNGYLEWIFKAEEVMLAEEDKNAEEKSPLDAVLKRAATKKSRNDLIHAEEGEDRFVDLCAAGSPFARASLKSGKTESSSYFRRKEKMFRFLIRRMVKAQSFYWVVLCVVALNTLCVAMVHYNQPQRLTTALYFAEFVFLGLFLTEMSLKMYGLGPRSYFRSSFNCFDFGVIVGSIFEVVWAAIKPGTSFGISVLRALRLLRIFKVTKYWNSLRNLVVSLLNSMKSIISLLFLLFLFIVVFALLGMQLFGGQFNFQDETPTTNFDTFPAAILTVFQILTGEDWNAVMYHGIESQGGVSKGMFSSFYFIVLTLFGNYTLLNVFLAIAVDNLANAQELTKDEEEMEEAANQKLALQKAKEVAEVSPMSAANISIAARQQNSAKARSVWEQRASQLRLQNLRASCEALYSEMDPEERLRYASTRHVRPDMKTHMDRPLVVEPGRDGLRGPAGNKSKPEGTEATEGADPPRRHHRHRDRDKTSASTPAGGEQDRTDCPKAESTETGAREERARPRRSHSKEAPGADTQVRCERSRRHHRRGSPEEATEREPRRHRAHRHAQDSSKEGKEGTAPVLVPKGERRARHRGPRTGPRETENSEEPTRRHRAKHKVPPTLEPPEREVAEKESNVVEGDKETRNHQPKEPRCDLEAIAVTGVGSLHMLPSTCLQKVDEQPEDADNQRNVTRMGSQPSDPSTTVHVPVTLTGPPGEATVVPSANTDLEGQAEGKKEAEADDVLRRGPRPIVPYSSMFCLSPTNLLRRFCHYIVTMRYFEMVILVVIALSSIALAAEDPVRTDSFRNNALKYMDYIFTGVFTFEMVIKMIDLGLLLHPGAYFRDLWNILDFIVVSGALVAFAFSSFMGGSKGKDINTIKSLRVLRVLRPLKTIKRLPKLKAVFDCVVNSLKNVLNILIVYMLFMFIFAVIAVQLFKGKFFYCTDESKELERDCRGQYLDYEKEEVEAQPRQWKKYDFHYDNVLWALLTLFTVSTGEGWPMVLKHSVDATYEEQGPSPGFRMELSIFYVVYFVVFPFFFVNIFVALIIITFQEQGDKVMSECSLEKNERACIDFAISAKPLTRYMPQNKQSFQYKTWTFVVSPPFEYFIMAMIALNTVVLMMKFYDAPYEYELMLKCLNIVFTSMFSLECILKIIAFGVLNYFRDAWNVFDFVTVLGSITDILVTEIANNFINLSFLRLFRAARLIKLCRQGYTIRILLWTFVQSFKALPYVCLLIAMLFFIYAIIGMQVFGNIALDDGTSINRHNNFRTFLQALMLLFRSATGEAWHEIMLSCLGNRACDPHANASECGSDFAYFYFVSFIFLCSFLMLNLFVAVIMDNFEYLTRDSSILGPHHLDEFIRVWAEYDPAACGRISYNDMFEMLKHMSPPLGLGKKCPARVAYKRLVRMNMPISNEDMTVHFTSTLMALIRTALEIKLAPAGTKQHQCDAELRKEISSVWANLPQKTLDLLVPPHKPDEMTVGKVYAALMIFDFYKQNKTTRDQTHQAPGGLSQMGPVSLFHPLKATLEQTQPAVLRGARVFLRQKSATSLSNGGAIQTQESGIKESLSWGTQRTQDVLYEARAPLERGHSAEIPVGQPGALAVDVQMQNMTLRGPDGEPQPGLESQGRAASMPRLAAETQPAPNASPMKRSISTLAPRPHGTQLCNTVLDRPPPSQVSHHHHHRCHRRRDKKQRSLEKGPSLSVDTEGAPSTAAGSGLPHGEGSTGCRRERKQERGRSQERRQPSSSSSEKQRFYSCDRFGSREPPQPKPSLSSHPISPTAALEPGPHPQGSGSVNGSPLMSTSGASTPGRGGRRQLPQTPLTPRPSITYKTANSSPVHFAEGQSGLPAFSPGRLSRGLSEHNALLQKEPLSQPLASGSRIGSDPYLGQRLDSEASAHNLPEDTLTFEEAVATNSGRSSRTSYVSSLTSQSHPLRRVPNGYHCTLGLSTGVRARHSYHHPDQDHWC

[2] = system: OCT receptor sites, 293 human kidney cells; type: binding
[3] = system: depolarization-dependent ATP release from electric organ synaptosomes; type: biochemical, Ommata discopyge; settings: read-out: IC50 (ATP release inhibition)
[4] = system: hippocampal CA1 region, rat four-vessel occlusion model; parameters: species or system rat (Fisher 344); settings: in vivo
Male Swiss-Webster mice = settings: mouse, in vivo; cited from earlier work
[5] = biological target: OCT binding sites, elasmobranch electric organ synaptosomes (Diplobatis ommata, UniProt P56698); experiment: biochemical; parameters: species or system Ommata dyscopyge (marine electric ray)
Chain of OCT binding sites, elasmobranch electric organ synaptosomes (P56698 whole entry, looked up): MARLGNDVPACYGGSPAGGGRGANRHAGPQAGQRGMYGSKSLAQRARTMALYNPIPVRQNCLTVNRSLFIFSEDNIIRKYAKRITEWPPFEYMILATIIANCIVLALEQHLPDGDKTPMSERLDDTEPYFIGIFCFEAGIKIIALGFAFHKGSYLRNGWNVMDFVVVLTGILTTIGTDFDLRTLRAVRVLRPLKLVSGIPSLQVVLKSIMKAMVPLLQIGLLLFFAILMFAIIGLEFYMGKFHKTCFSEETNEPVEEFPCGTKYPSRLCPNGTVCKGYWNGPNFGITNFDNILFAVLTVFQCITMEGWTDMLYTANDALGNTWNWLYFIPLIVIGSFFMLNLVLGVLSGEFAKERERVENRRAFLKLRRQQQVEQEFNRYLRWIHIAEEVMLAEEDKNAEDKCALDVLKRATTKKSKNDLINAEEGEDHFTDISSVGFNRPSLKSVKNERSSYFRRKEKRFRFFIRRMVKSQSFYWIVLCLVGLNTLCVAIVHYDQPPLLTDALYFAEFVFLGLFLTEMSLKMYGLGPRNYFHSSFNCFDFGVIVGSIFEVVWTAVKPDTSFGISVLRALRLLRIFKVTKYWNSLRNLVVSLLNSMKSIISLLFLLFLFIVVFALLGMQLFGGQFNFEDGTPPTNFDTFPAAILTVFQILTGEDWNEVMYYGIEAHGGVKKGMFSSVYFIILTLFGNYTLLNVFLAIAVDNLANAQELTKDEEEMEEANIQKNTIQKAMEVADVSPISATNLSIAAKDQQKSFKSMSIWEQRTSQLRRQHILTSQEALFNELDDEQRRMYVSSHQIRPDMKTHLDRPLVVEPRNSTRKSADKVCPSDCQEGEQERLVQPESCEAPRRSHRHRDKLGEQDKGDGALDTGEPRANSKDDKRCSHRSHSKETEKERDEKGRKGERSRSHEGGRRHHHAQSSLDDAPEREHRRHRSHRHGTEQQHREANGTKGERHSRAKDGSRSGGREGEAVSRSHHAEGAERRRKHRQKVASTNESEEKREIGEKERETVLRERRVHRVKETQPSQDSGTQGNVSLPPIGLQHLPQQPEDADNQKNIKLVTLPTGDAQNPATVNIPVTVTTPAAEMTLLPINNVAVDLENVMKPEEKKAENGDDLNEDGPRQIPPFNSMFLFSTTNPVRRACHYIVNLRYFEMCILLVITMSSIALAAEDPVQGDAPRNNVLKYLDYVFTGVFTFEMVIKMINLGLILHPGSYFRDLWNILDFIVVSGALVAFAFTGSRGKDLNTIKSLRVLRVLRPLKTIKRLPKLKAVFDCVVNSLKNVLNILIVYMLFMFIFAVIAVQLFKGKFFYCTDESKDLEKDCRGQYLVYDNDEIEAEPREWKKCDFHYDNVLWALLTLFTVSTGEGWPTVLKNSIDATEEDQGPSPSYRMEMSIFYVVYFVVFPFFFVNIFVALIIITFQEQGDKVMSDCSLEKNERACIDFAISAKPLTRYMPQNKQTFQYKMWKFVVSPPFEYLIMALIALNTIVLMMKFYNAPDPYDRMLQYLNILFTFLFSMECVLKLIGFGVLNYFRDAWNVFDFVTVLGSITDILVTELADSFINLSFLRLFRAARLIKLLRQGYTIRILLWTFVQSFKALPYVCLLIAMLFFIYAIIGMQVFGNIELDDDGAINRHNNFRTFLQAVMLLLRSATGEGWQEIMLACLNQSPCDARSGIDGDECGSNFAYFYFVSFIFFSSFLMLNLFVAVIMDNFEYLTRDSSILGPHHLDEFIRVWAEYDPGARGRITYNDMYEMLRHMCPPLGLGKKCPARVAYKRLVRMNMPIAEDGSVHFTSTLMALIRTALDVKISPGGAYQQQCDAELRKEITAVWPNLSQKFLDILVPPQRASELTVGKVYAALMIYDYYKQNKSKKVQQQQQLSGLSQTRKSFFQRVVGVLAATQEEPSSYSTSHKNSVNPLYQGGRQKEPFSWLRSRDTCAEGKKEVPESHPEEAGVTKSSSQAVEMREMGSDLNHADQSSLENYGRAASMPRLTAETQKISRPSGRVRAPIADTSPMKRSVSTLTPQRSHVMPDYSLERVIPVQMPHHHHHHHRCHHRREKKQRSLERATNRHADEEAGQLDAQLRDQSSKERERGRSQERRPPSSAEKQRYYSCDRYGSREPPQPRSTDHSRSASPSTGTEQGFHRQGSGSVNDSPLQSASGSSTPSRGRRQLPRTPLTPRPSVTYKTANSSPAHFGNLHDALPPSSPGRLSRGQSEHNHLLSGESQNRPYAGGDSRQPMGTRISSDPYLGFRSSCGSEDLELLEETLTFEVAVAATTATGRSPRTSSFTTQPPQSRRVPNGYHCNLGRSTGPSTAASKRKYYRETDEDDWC

[6] = biological target: OCT binding site, rat brain synaptosomes (Rattus norvegicus, UniProt Q02294); experiment: biochemical
Chain of OCT binding site, rat brain synaptosomes (Q02294 whole entry, looked up): as the sequence (Q02294 whole entry, looked up) above

[7] = system: hippocampal CA1 region, gerbil global ischemia model; parameters: species or system Meriones unguiculatus (mongolian gerbil); settings: in vivo
[8] = system: voltage-gated calcium channels, dorsal root ganglion (DRG) neurons; settings: cited from earlier work

| Structure (SMILES) | Ki ([5]; pKi) | IC50 [6] | other results |
| --- | --- | --- | --- |
| CSCC[C@@H]1NC(=O)[C@H](CC(C)C)NC(=O)[C@H](CCCNC(=N)N)NC(=O)[C@H](CO)NC(=O)[C@@H]2CSSC[C@@H]3NC(=O)[C@H](CO)NC(=O)CNC(=O)[C@H]([C@@H](C)O)NC(=O)[C@H](CSSC[C@H](N)C(=O)N[C@@H](CCCCN)C(=O)NCC(=O)N[C@@H](CCCCN)C(=O)NCC(=O)N[C@@H](C)C(=O)N[C@@H](CCCCN)C(=O)N2)NC(=O)[C@H](CSSC[C@@H](C(N)=O)NC(=O)[C@H](CCCCN)NC(=O)CNC(=O)[C@H](CO)NC(=O)[C@H](CCCNC(=N)N)NC3=O)NC(=O)[C@H](CC(=O)O)NC(=O)[C@H](Cc2ccc(O)cc2)NC1=O [MVIIA] | – | – | concentration of specific binding sites [1]: 56.6 and 79.1; concentration of specific binding sites [2]: < 4.6; IC50 [3]: 0.03 µM; Mean score (S.E.M), CA1 damage 0-4 [4]: 1.2 (0.36); effect of ICV administration in mice (Male Swiss-Webster mice): whole-body tremors |
| CC(C)C[C@@H]1NC(=O)[C@H](CCCCN)NC(=O)[C@@H](N)CSSC[C@@H]2NC(=O)[C@@H]3CSSC[C@@H](C(N)=O)NC(=O)[C@H](CCCCN)NC(=O)CNC(=O)[C@H](CO)NC(=O)[C@H](CCCNC(=N)N)NC(=O)CNC(=O)[C@H](CSSC[C@H](NC(=O)[C@H](CO)NC(=O)[C@H](CCC(N)=O)NC(=O)CNC(=O)[C@H](CCCCN)NC1=O)C(=O)N[C@@H](CCCNC(=N)N)C(=O)N[C@@H](CCCCN)C(=O)N[C@@H]([C@@H](C)O)C(=O)N[C@@H](CO)C(=O)N[C@@H](Cc1ccc(O)cc1)C(=O)N[C@@H](CC(=O)O)C(=O)N3)NC(=O)[C@H](CO)NC(=O)CNC(=O)[C@H](CO)NC2=O [SVIB] (H-CKLKGQSCRKTSYDCCSGSCGRSGKC-NH2; disulfide 1-16, 8-20, 15-26) | 0.00302 µM | 0.0057 µM | – |
| C[C@@H]1NC(=O)CNC(=O)[C@H](CCCCN)NC(=O)CNC(=O)[C@H](CCCCN)NC(=O)[C@@H](N)CSSC[C@@H]2NC(=O)[C@@H]3CSSC[C@@H](C(N)=O)NC(=O)[C@H](CCCCN)NC(=O)CNC(=O)[C@H](CCCNC(=N)N)NC(=O)[C@H](CC(N)=O)NC(=O)[C@H](CSSC[C@H](NC(=O)[C@H](CO)NC1=O)C(=O)N[C@@H](Cc1c[nH]cn1)C(=O)N[C@@H](CCCNC(=N)N)C(=O)N[C@@H]([C@@H](C)O)C(=O)N[C@@H](CO)C(=O)N[C@@H](Cc1ccc(O)cc1)C(=O)N[C@@H](CC(=O)O)C(=O)N3)NC(=O)[C@H](CO)NC(=O)CNC(=O)[C@H]([C@@H](C)O)NC2=O [MVIIB] (H-CKGKGASCHRTSYDCCTGSCNRGKC-NH2; disulfide 1-16, 8-20, 15-25) | 0.0219 µM | 0.00049 µM | – |
| CSCC[C@@H]1NC(=O)CNC(=O)[C@H](CCCNC(=N)N)NC(=O)[C@H](CO)NC(=O)[C@@H]2CSSC[C@@H]3NC(=O)[C@H](CO)NC(=O)[C@H]([C@@H](C)O)NC(=O)[C@H](CSSC[C@H](N)C(=O)N[C@@H](CCCCN)C(=O)N[C@@H](CO)C(=O)N4C[C@H](O)C[C@H]4C(=O)NCC(=O)N[C@@H]([C@@H](C)O)C(=O)N4C[C@H](O)C[C@H]4C(=O)N2)NC(=O)[C@H](CSSC[C@@H](C(=O)N[C@@H](CCCNC(=N)N)C(=O)N[C@@H](CCCNC(=N)N)C(=O)N[C@@H](Cc2ccc(O)cc2)C(N)=O)NC(=O)[C@H](CCCCN)NC(=O)[C@H](CC(N)=O)NC(=O)[C@H](CO)NC(=O)[C@H](Cc2ccc(O)cc2)NC(=O)[C@H](CC(C)C)NC(=O)[C@H](CC(C)C)NC3=O)NC(=O)[C@H](CC(=O)O)NC(=O)[C@H](CCCNC(=N)N)NC1=O [GVIIA] (H-CKS[Hyp]GT[Hyp]CSRGMRDCCTSCLLYSNKCRRY-NH2; disulfide 1-16, 8-19, 15-26) | 0.00309 µM | 0.0229 µM | – |
| C[C@@H](O)[C@@H]1NC(=O)[C@H](Cc2ccc(O)cc2)NC(=O)[C@@H]2C[C@@H](O)CN2C(=O)[C@H](CC(N)=O)NC(=O)[C@@H]2CSSC[C@@H]3NC(=O)[C@H](CO)NC(=O)[C@H](CO)NC(=O)CNC(=O)[C@@H]4C[C@@H](O)CN4C(=O)[C@H](CO)NC(=O)[C@H](CCCCN)NC(=O)[C@@H](N)CSSC[C@H](NC(=O)[C@H](CSSC[C@@H](C(=O)N[C@@H](Cc4ccc(O)cc4)C(N)=O)NC(=O)[C@H](CCCNC(=N)N)NC(=O)[C@H](CCCCN)NC1=O)NC(=O)[C@H](CC(N)=O)NC(=O)[C@H](Cc1ccc(O)cc1)NC(=O)[C@H](CO)NC(=O)[C@H]([C@@H](C)O)NC(=O)[C@@H]1C[C@@H](O)CN1C(=O)[C@H](CO)NC3=O)C(=O)N[C@@H](CCCNC(=N)N)C(=O)N[C@@H](CO)C(=O)N2 [GVIA, HCysLysSer4HypGlySerSerCysSer4HypThrSerTyrAsnCysCysArgSerCysAsn4HypTyrLysArgCysTyr-NH2] | 0.0141 µM | 0.00048 µM | IC50 [3]: 0.2 µM; Mean score (S.E.M), CA1 damage 0-4 [7]: 1.3 (.33) and 1.2 (.39); Percent Damage [7]: 42% and 39%; reduction in damage [7]: > 50%; block of voltage-gated calcium channels [8]: block voltage-gated calcium channels |
| CC[C@H](C)[C@@H]1NC(=O)[C@H](CO)NC(=O)[C@H]([C@@H](C)O)NC(=O)[C@H](C(C)C)NC(=O)CNC(=O)[C@@H]2CSSC[C@@H]3NC(=O)[C@H](CCCNC(=N)N)NC(=O)CNC(=O)[C@H](CSSC[C@H](N)C(=O)N[C@@H](CCCNC(=N)N)C(=O)N[C@@H](CO)C(=O)N[C@@H](CO)C(=O)NCC(=O)N[C@@H](CO)C(=O)N4C[C@H](O)C[C@H]4C(=O)N[C@@H](Cc4c[nH]cn4)C(=O)N2)NC(=O)[C@H](CSSC[C@@H](C(=O)N[C@H](C(N)=O)[C@@H](C)O)NC(=O)[C@H](CCCCN)NC(=O)CNC(=O)[C@H](CCCNC(=N)N)NC(=O)[C@H](Cc2ccc(O)cc2)NC3=O)NC1=O [SVIA, H-CysArgSerSerGlySer4HypHisCysGlyValThrSerIleCysCysGly ArgCysTyrArgGlyLysCysThr-NH2] (H-CRSSGS[Hyp]HCGVTSICCGRCYRGKCT-NH2; disulfide 1-16, 9-19, 15-24) | > 1000 µM | > 1000 µM | binding affinity/activity (in words) [5]: relatively low affinity binding |
| CC(C)[C@@H]1NC(=O)[C@H](CCCNC(=N)N)NC(=O)[C@@H]2CSSC[C@@H]3NC(=O)[C@H](CO)NC(=O)[C@H](CO)NC(=O)[C@H](CSSC[C@H](N)C(=O)N[C@@H](CCCCN)C(=O)N4CCC[C@H]4C(=O)N4C[C@H](O)C[C@H]4C(=O)NCC(=O)N[C@@H](CO)C(=O)N4C[C@H](O)C[C@H]4C(=O)N2)NC(=O)[C@H](CSSC[C@@H](C(=O)NCC(N)=O)NC(=O)[C@H](CCCCN)NC(=O)[C@H](CCCCN)NC(=O)[C@H](CC(N)=O)NC(=O)[C@H](Cc2ccc(O)cc2)NC(=O)[C@H](CO)NC(=O)[C@H](CCCCN)NC3=O)NC(=O)[C@H](CC(N)=O)NC(=O)[C@H](Cc2ccc(O)cc2)NC(=O)[C@H](CO)NC(=O)[C@H](CO)NC1=O [RVIA] (H-CKP[Hyp]GS[Hyp]CRVSSYNCCSSCKSYNKKCG-NH2; disulfide 1-16, 8-19, 15-26) | 0.355 µM | 0.229 µM | Ki ([5]; Ki): 0.324 µM |
